“Also recorded” adds a separate entry of the source.
Columns and labels:
[1] = test system: human CD34+ (hCD34+) peripheral blood stem cells; assay: In vivo trafficking of 111In-labeled human CD34+ stem cells (HSC) after glycoprotein pretreatment, gamma camera imaging; set-up: species or system NOD-SCID mice
[2] = test system: human mesenchymal stem cells (MSC); assay: In vivo trafficking of 111In-labeled human mesenchymal stem cells (MSC) after glycoprotein pretreatment, gamma camera imaging; set-up: species or system NOD-SCID mice
Procedure: Human mesenchymal stem cells (hMSCs; PT-2501) obtained through an FDA-monitored, paid bone marrow donor program were purchased from Poietics Technologies, BioWhittaker (Walkerville, Md.). The cells were thawed according to manufacturer recommendations, resuspended, and radiolabelled in Mesenchymal Stem Cell Basal Medium (MSCBM).
^111Indium Oxine Labelling Procedure: ^111In-oxine labelling of adult human CD34+ or mesenchymal stem cells (hMSCs) was performed using a modification of the Amersham Healthcare Procedure for labelling autologous leukocytes.
Imaging procedures: Nuclear Medicine. NOD-SCID mice were anesthetized using rodent anesthesia cocktail. Once anesthetized, the mice were placed on a foam hemi-cylindrical mouse-positioning device (MPD,) and covered with a tube sock. The MPD allows better visual separation of the lungs and liver as compared to placing the mouse on a flat surface. The foam on which the mouse was placed, and the tube sock covering maintained a comfortable temperature permitting longer imaging without additional anesthesia. The MPD was placed on a narrow table between the dual heads of a Siemens E.Cam Gamma Camera and imaged statically or dynamically in 2-D or SPECT. ^57Co-Spot Marker is used to mark anatomic positions (nose, tail, cannula, etc.). The data was analyzed using a Siemens ICON system for regions of interest or percent of injected dose (e.g., liver, spleen, heart).
Gamma camera imaging using a Siemens E.Cam dual head gamma camera monitored the in vivo trafficking patterns of all human stem cells described in the following examples. Mice were placed on a Mouse Positioning Device (MPD) and placed between the detectors on the imaging platform.
MSC were obtained from BioWhittaker, (Poietics Division, cryopreserved PT-2501>750000 cells per ampoule) and labelled with ^111In as in previous examples, except that the MSC were labelled, washed, and injected in Basal Stem Cell Medium (Poietics) containing 5% human serum albumin (HSA). 0.56×10^6, ^111In-labelled, human mesenchymal stem cells (MSC) were administered via an implanted DaVinci Microport Vascular System cannula in the external jugular vein of a two-month old, female NOD-SCID mouse in 0.21 ml of basal stem cell medium containing 5% human serum albumin (HSA). Immediately prior to administration of MSC, 11.0 mg of orosomucoid was administered i.v. in 0.2 ml.
0.56×10^6, ^111In-labeled MSC were administered i.v. in 0.21 ml of basal stem cell medium containing 5% human serum albumin (HSA). […]

[3] = test system: human CD34+ (hCD34+) peripheral blood stem cells; assay: Microscopic examination of organs: immunohistochemical staining for human CD34 and in situ hybridization for human DNA after HSC infusion; type: in vivo, NOD-SCID mice
Excerpt: Harvesting for tissues for histopathology: Tissues were harvested after euthanasia. After the 1-hour image, the organs were harvested and half the organ was fixed in 10% neutral buffered formalin and the other half was frozen in OTC for frozen sections. The images presented herein are from fixed tissues.
Necropsy Procedure For Collection of Mouse Tissues: An initial midline skin incision from the anterior cervical region to the brim of the pubis was made followed by an abdominal incision following linea alba from the sternum to the pubis with a lateral reflection of the abdominal wall by incision following the caudal ribs. The sternum was reflected anteriorly by cutting the ribs at approximately the level of the costochrondral junction, incising the diaphragm and pericardium as needed. Anteriorly, reflection of sternum was extended to include the ventral cervical muscles to expose the trachea. The trachea and esophagus were incised at the mid cervical area and reflected caudally, cutting attachments as necessary to remove the thoracic viscera in toto. Following removal of the thoracic viscera, the entire heart was dissected free and immersed in 10% neutral buffered formalin. […]
Mice were imaged and the biodistribution of the radiolabelled hCD34+ cells monitored as described above. […]

[4] = test system: human mesenchymal stem cells (MSC); assay: In situ hybridization for human DNA in organs after MSC infusion; type: in vivo, NOD-SCID mice; conditions: 0.56×10^6 MSC preceded by 11 mg orosomucoid i.v.
Excerpt: Mice were imaged and the biodistribution of the radiolabelled MSCs cells monitored as described in Example 1. […] The positions of the cannula, diaphragm, heart, lungs, and liver were verified by CT scans (coronal sections).
The positions of the cannula, diaphragm, heart, lungs, and liver were verified by CT scans. In situ hybridization confirmed the gamma camera biodistribution data.

[5] = test system: platelet aggregation induced by ADP and adrenaline; conditions: reported in the literature; cited from earlier work
[6] = cells infused into the jugular vein of immunodeficient mice, preceded by an infusion of the protein

Orosomucoid: alpha-(1)-acid glycoprotein, a normal constituent of human plasma; single polypeptide chain, approximately 45% carbohydrate including 12% sialic acid
% infused cells in liver region ([1]; 0.5×10^6 HSC preceded by 11 mg orosomucoid i.v., 1 hr): 40±3% | % infused cells in liver and spleen ([1]; 0.5×10^6 HSC preceded by 11 mg orosomucoid i.v., immediately after infusion): 43±2% | 111In-labeled HSC in the region of the heart (imaging, words) ([1]; 5.75×10^6 HSC preceded by 5.5 mg orosomucoid i.v.): No ^111In-labeled cells were found in the region of the heart | Organ in which hematopoietic stem cells localize (summary, words) [1, 6]: localize in the liver | % Infused Cells In Heart ([2]; 0.56×10^6 MSC preceded by 11 mg orosomucoid i.v., 0 hr): 61.7-75.5% | % Infused Cells In Heart ([2]; 0.56×10^6 MSC preceded by 11 mg orosomucoid i.v., 1 hr): 58-64% | % Infused Cells In Heart ([2]; MSC/Orosomucoid, at 12 hr (Table 1)): 61 ± 3% at 12 hr | Organ in which mesenchymal stem cells localize (summary, words) [2, 6]: predominantly localize in the heart | Tissue location of hCD34+ cells (CD34 staining, in situ hybridization for human DNA) ([3]; 0.5×10^6 HSC preceded by 11 mg orosomucoid i.v., about 1 hour after infusion): Clusters of cells with stem cell morphology could be seen in the hepatic sinusoid; also recorded: not found in the heart muscle or interventricular septum but were present in the lung | Migration of stem cells into tissue (summary, words) ([3]; hematopoietic stem cells after protein infusion): clusters of stem cells are found in the liver parenchyma | Location of human cells by in situ hybridization [4]: human cells predominantly in the heart, but not the liver | Amounts that inhibit platelet aggregation [5]: 5 to 15 mg/mL

— patent US7563459B2, “Methods and compositions for regenerating tissue” (The United States of America as represented by the …, priority 2002, dated 2009)
